Where a SMILES comes first, the peptide text is derived from it. [ ]: non-standard residue; d: D form. d2Nal = N[C@H](Cc1ccc2ccccc2c1)C(=O)O
Key:
E. faecium (DSM 20477) = conditions: E. faecium, from MIC
Protocol: (§1) The peptides were assessed for their antibacterial activity by determining the minimum inhibitory concentration (MIC) using the two-fold serial dilution method following the National Committee of Clinical Laboratory Standards, as previously described. Gram-negative (Acinetobacter baumannii (DSM 30007), Escherichia coli (ATCC 8739), Enterobacter cloacae (DSM 30054), Helicobacter pylori (ATCC 43504), Klebsiella pneumoniae (DSM 26371), Pseudomonas aeruginosa (ATCC 9027)) and Gram-positive bacteria (Bacillus subtilis (ATCC 6633), Enterococcus faecalis (DSM 2570), Enterococcus faecium (DSM 20477), Staphylococcus aureus (ATCC 6538)) were used for the antibacterial activity assays. In brief, 3 mL of Mueller–Hinton (MH) broth was inoculated with single clusters of the various bacterial strains and incubated overnight at 37 °C with agitation at 200 rpm. The next day, the bacterial solution was diluted with sterile MH by 1/100 and further incubated at 37 °C and 200 rpm until the bacteria reached the log phase growth (OD600nm around 0.6). The bacterial suspension was then adjusted to a density of approximately 10^5 bacteria/mL, and 100 μL was added per well of 96-well microplates (Greiner BioOne, Les Ulis, France), followed by exposure to increasing concentrations of peptides (from 0 to 100 µM, 1:2 dilution). Plates were then incubated at 37 °C for 18-24 h under either aerobic (for A. baumannii, E. cloacae, E. coli, P. aeruginosa, B. subtilis, and S. aureus) or micro-aerobic conditions generated using GasPak units (for E. faecalis, E. faecium and, H. pylori). […] The optical density (OD) at 600nm was measured using a microplate reader (Biotek, Synergy Mx, Les Ulis, France) after the final incubation. All experiments were performed in triplicate (n = 3).

E. faecalis (DSM 2570) = tested on: E. faecalis (DSM 2570)
Protocol: as §1

[1] = Circular dichroism, secondary structure (Bestsel); type: physicochemical; conditions: CD in 20 mM SDS
Protocol: Circular dichroism of temporin SHa, [G10a]-SHa and newly synthesised second-generation analogs of [G10a]-SHa in 20 mM SDS are shown in Figure 2. In lipidic environments mimicked by SDS, peptides adopt an alpha helical structure due to their amphipathic nature. This structural feature is important for their antimicrobial activity, allowing for their insertion into bacterial membranes. The hydrophobic region of the peptide interacts with the hydrophobic portion of the lipid while the hydrophilic region remains exposed to the aqueous environment. The percentage of alpha helix, as well as the percentage of other secondary structures, was determined from CD data using Bestsel software (https://bestsel.elte.hu/index.php, (accessed on 22 June 2024)) (Table 3). Temporin-SHa (1) adopted a 49.5% α-helical structure, while its first-generation analog [G10a]-SHa (2) acquired a 82.4% alpha helical structure. The 84.6%, 88.7%, 4.7%, and 53.8% alpha helical structures were acquired for second-generation analogs 3, 4, 5, and 6, respectively.
The far-ultraviolet CD spectra were obtained using a JASCO J-810 spectropolarimeter (Jasco, Tokyo, Japan). In addition to this, the quartz cuvette of 10 mm path length was used. The temperature was maintained at 22 °C, and the output of the instrument was calibrated using D-(+)-10-camphorsulfonic acid. The peptides, which were present at a concentration of 1.0 mg/mL, were dissolved completely in 20 mM SDS at a concentration of 15 µM [21]. The instrument was set to record wavelengths ranging from 190 to 260 nm with a bandwidth of 2 nm. Ten consecutive scans (accumulations) were recorded for each spectrum at a rate of 50 nm/min, and the baseline was acquired under the same conditions.

Liver Cancer (HepG-2) = type: cell-based, human; conditions: 48 h
Protocol: (§2) The antiproliferative activity of the peptides was evaluated, as previously described using human cancer cell lines (A549 (lung), A2780 (ovary), HepG-2 (liver), MCF-7 (breast), MiaPaCa-2 (pancreas), MNT-1 (skin), and PC-3 (prostate)) and normal human lung fibroblasts (IMR-90) or epithelial cells (BEAS-2B). The cells were cultured in DMEM supplemented with 10% FBS, 1% L-glutamine, and 1% antibiotics at 37 °C in a 5% CO2 incubator. For the antiproliferative assay, cells were seeded in 96-well plates at approximately 3000 cells/well. Twenty-four hours later, cells were treated with increasing concentrations of peptides (1:2 serial dilution from 100 µM to 0 µM) for 48 h. After treatment, the number of viable cells was determined using a resazurin-based assay, and the fluorescence intensity was measured with a microplate reader (Ex 530 nm/Em 590 nm). The IC50 values of the peptides (i.e., the concentrations causing 50% inhibition of cell proliferation) were determined using GraphPad® Prism 7 software. The experiments were performed in triplicate (n = 3). The cytotoxicity of the peptides was also evaluated using confluent/no-dividing cells, as previously described. Briefly, human cells were seeded onto 96-well plates at 20,000 cells/well. When they reached 80–90% confluence (after 24–48 h), cells were treated with escalating concentrations of peptides. After 48h incubation, cell viability was measured using a resazurin assay and CC50 (i.e., the concentrations causing 50% inhibition of cell viability) and determined using GraphPad® Prism 7 software. The experiments were performed in triplicate (n = 3).

[2] = tested on: Pancreatic Cancer (MiaPaCa-2); type: cell-based, human; conditions: 48 h
Protocol: as §2

Prostate Cancer (PC-3) = type: cell-based, human; conditions: 48 h
Protocol: as §2

Ovarian Cancer (A2780) = type: cell-based, human; conditions: 48 h
Protocol: as §2

Breast Cancer (MCF-7) = type: cell-based, human; conditions: 48 h
Protocol: as §2

Skin Cancer (MNT-1) = type: cell-based, human; conditions: 48 h
Protocol: as §2

E. cloacae (DSM 30054) = tested on: E. cloacae (DSM 30054)
Protocol: as §1

E. coli (ATCC 8739) = conditions: E. coli, from MIC
Protocol: as §1

K. pneumonia (DSM 26371) = conditions: K. pneumonia, from MIC
Protocol: as §1

[3] = tested on: P. aeruginosa (ATCC 9027); conditions: P. aeruginosa, from MIC
Protocol: as §1

A. baumannii (DSM 30007) = conditions: A. baumannii, from MIC
Protocol: as §1

Lung Cancer (A549) = type: cell-based, human; conditions: 48 h
Protocol: as §2

[4] = tested on: Normal Lung Fibroblast (IMR-90); type: cell-based, human; conditions: 48 h
Protocol: as §2

[5] = tested on: Gram-negative and Gram-positive bacterial strains
Protocol: as §1

[6] = tested on: Normal Lung Epithelium (BEAS-2B); type: cell-based, human; conditions: 48 h
Protocol: as §2

[7] = tested on: human cancer and normal/non-cancerous cells; type: cell-based; conditions: tested human cells, up to 100 µM
Protocol: as §2

Row | Antiparallel [1] | Helix (alpha helical structure) [1] | Others [1] | Parallel [1] | Turn [1] | IC50 (Liver Cancer (HepG-2)) | IC50 [2] | IC50 (Prostate Cancer (PC-3)) | IC50 (Ovarian Cancer (A2780)) | IC50 (Breast Cancer (MCF-7)) | IC50 (Skin Cancer (MNT-1)) | IC50 (Lung Cancer (A549)) | SMILES | fold activity compared to [G10a]-SHa (2) (E. faecium (DSM 20477)) | IC50 [4] | IC50 [6] | also measured
1 | 15.10% | 53.80% | 0.00% | 31.10% | 0.00% | 40.3 ± 7.2 µM | 23.9 ± 3.9 µM | 19.3 ± 1.2 µM | 23.2 ± 3.1 µM | 13.1 ± 3.6 µM | 44.1 ± 8.1 µM | – | CC[C@H](C)[C@H](NC(=O)CNC(=O)[C@H](CO)NC(=O)[C@H](CC(C)C)NC(=O)[C@@H](N)Cc1ccccc1)C(=O)N[C@H](C(=O)NCC(=O)N[C@@H](CCSC)C(=O)N[C@@H](CC(C)C)C(=O)N[C@H](Cc1ccc(O)cc1)C(=O)N[C@@H](CCCCN)C(=O)N[C@@H](CC(C)C)C(=O)N[C@@H](Cc1ccccc1)C(N)=O)C(C)C [[G10y]-SHa (6), H-Phe^1-Leu^2-Ser^3-Gly^4-IIe^5-Val^6-Gly^7-Met^8-Leu^9-D-Tyr^10-Lys^11-Leu^12-Phe^13-NH2] (H-FLSGIVGML[dY]KLF-NH2) | at least eight times more activity | – | – | fold activity compared to [G10a]-SHa (2) (E. faecalis (DSM 2570); E. faecalis, from MIC): twice the activity; Helix (alpha helical structure) ([1]; listed as 6): 53.8%
2 | 11.30% | 88.70% | 0.00% | 0.00% | 0.00% | 64.3 ± 3.5 µM | 61.4 ± 4.1 µM | 11.7 ± 1.2 µM | 21.8 ± 3.2 µM | 37.4 ± 11.8 µM | 21.7 ± 6.9 µM | 32.6 ± 2.4 µM | CC[C@H](C)[C@H](NC(=O)CNC(=O)[C@H](CO)NC(=O)[C@H](CC(C)C)NC(=O)[C@@H](N)Cc1ccccc1)C(=O)N[C@H](C(=O)NCC(=O)N[C@@H](CCSC)C(=O)N[C@@H](CC(C)C)C(=O)N[C@@H](CCCCN)C(=O)N[C@@H](CCCCN)C(=O)N[C@@H](CC(C)C)C(=O)N[C@@H](Cc1ccccc1)C(N)=O)C(C)C [[G10K]-SHa (4), H-Phe^1-Leu^2-Ser^3-Gly^4-IIe^5-Val^6-Gly^7-Met^8-Leu^9-L-Lys^10-Lys^11-Leu^12-Phe^13-NH2] (H-FLSGIVGMLKKLF-NH2) | at least 16 | > 100 µM | – | fold activity compared to [G10a]-SHa (2) (E. cloacae (DSM 30054); E. cloacae, from MIC): about eight times more active; fold increase in activity relative to the parent peptide (1) (E. cloacae (DSM 30054); Enterobacter cloacae DSM 30054, from MIC): 4; fold activity compared to [G10a]-SHa (2) (E. coli (ATCC 8739)): at least four times more active; fold activity compared to [G10a]-SHa (2) (K. pneumonia (DSM 26371)): at least four times more active; fold activity compared to [G10a]-SHa (2) [3]: at least four times more active; fold increase in activity relative to the parent peptide (1) (E. faecalis (DSM 2570); Enterococcus faecalis DSM 2570, from MIC): 4; fold activity compared to [G10a]-SHa (2) (A. baumannii (DSM 30007)): at least four times more active; Helix (alpha helical structure) ([1]; listed as 4): 88.7%
3 | 34.10% | 4.70% | 47.20% | 1.10% | 12.90% | > 100 µM | > 100 µM | > 100 µM | > 100 µM | > 100 µM | > 100 µM | > 100 µM | CC[C@H](C)[C@H](NC(=O)CNC(=O)[C@H](CO)NC(=O)[C@H](CC(C)C)NC(=O)[C@@H](N)Cc1ccccc1)C(=O)N[C@H](C(=O)NCC(=O)N[C@@H](CCSC)C(=O)N[C@@H](CC(C)C)C(=O)N[C@H](Cc1ccc2ccccc2c1)C(=O)N[C@@H](CCCCN)C(=O)N[C@@H](CC(C)C)C(=O)N[C@@H](Cc1ccccc1)C(N)=O)C(C)C [[G10n]-SHa (5), H-Phe^1-Leu^2-Ser^3-Gly^4-IIe^5-Val^6-Gly^7-Met^8-Leu^9-D-NAL^10-Lys^11-Leu^12-Phe^13-NH2] (H-FLSGIVGML[d2Nal]KLF-NH2) | – | > 100 µM | > 100 µM | MIC values, range over strains [5]: 50 to 100 µM; Helix (alpha helical structure) ([1]; listed as 5): 4.7%; activity against the tested human cells [7]: inactive
4 | 15.40% | 84.60% | 0.00% | 0.00% | 0.00% | 19.8 ± 1.7 µM | 6.8 ± 0.4 µM | 4.9 ± 0.3 µM | 6.6 ± 0.5 µM | 4.4 ± 1.3 µM | 5.5 ± 0.4 µM | 3.6 ± 0.7 µM | CC[C@H](C)[C@H](NC(=O)CNC(=O)[C@H](CO)NC(=O)[C@H](CC(C)C)NC(=O)[C@@H](N)Cc1ccccc1)C(=O)N[C@H](C(=O)NCC(=O)N[C@@H](CCSC)C(=O)N[C@@H](CC(C)C)C(=O)N[C@H](Cc1ccccc1)C(=O)N[C@@H](CCCCN)C(=O)N[C@@H](CC(C)C)C(=O)N[C@@H](Cc1ccccc1)C(N)=O)C(C)C [[G10f]-SHa (3), H-Phe^1-Leu^2-Ser^3-Gly^4-IIe^5-Val^6-Gly^7-Met^8-Leu^9-D-Phe^10-Lys^11-Leu^12-Phe^13-NH2] (H-FLSGIVGML[dF]KLF-NH2) | 32 | 14.2 ± 0.6 µM | 7.8 ± 0.3 µM | Helix (alpha helical structure) ([1]; listed as 3): 84.6%

From article PMC11350846, “Synthesis of Second-Generation Analogs of Temporin-SHa Peptide Having Broad-Spectrum Antibacterial and Anticancer Effects” (Antibiotics, 2024)
